Data as given in patent publication US4760180A, “N-terminally substituted dipeptide amides” (priority 1986, dated 1988).
Read-outs that look alike come from different tables or passages of the source.

Key:
rat = settings: injected directly into the brain of the rat; Belluzi et al., Nature 260, 625 (1976); cited from earlier work
[1] = test system: phenylbenzoquinone-induced writhing in mice; experiment: Writhing assay (phenylbenzoquinone); format: in vivo; settings: 30 min before phenylbenzoquinone i.p.; for Writhing Mouse Oral: screening dose 10 mg/kg p.o. (intragastric); for Writhing Mouse Subc.: screening dose 10 mg/kg s.c.
Procedure: Writhing assay. Male Charles River albino mice (CD-1/HAM/1LR) weighing between 20 and 30 grams were used. Thirty minutes after subcutaneous or intragastric administration of the test compound (0.1 ml/10 gram body weight), 0.025(w/v) phenylbenzoquinone was injected intraperitoneally (0.1 ml/10 gram body weight). Five minutes later, each mouse was placed in a large glass beaker and the number of writhes that occurred in the subsequent ten minutes is counted. A writhe consisted of dorsoflexion of the back, extension of the hindlimbs, and strong contraction of the abdominal musculature. The test compound was considered to have produced analgesia in a mouse if the number of writhes elicited by phenylbenzoquinone was equal to or less than one-half the median number of writhes recorded for the saline-treated group that day. The results were expressed as the number of mice (out of a possible ten) in which the test compound produced analgesia. […] If the initial test dose of 10 mg/kg inhibited writhing in greater than 6 of IO mice, the effect of additional doses was evaluated and an ED50 value was calculated using a maximum likelihood function.

[2] = target: opiate receptors isolated from rat brain; format: binding
Procedure: Opiate Binding Assay. The test compounds were evaluated for their ability to displace the binding of ^3 H-Naloxone to opiate receptors isolated from rat brain. Male rats [Crl CD(SD)BR] obtained from Charles River Laboratories (Portage, Mich.) were sacrificed by cervical dislocation. A purified homogenate of receptor membranes was prepared from the brains according to the method described by Chang and Cuatrecasas. (K.-J. Chang and P. Cuatrecasas. Multiple Opiate Receptors: Enkephalins And Morphine Bind To Receptors Of Different Specificity. J. Biol. Chem. 254, 2610-2618 (1979).) The brains were homogenized in 10 volumes of 0.32M sucrose and centrifuged twice at 6,000xg for 15 minutes. Following centrifugation of the supernatants at 40,000xg for 30 minutes, the pellets were resuspended in 5mM Tris-HCl and then centrifuged at 6,000xg. The supernatant was centrifuged at 40,000xg. This resuspended pellet (5mM Tris HCl) was centrifuged twice. The final pellet was resuspended in 2 volumes of 50 mM tris HCl (pH 7.4). The homogenate was assayed for protein content according to the method of Itzhaki and Gill. (R. F. Itzhaki and D. M. Gill. A Micro-Biuret Method for Estimating Proteins. Anal. Biochem. 9, 401-410 (1964).
The binding of the test compounds to the receptor membrane preparation was measured using a modification of the method of Pert and Snyder. (C. B. Pert and S. H. Snyder. Properties of Opiate-Receptor Binding in Rat Brain. Proc. Natl. Acad. Sci. 70, 2243-2247 (1973). The receptor assay was run using final concentrations of 1 nM ^3 -H-Naloxone and 0.5 mg/ml of homogenate protein.
Levorphanol (1×10^-5 M) was used as the displacer for non-specific binding. Final concentration of the test compounds was 10^-5 M. The assay was run in 0.05M tris HCl (pH 7.4). Total assay volume was 1.0 ml.
Samples were incubated at 25° C. for 60 min., filtered over Whatman GF/C glass fiber filters and rinsed twice with 4 ml washes of ice-cold buffer. The filters were air-dried at 50° C. for 30 minutes. After drying, 10 ml of PCS was added to the vial and the radioactivity determined using a tracor analytic Mark III liquid scintillation counter with a counting efficiency of 48.
The IC50 value, the concentration of the test compounds which inhibited ^3 H-Naloxone specific binding to the opiate receptor by 50, were obtained from log-logit plots of concentration-response curves.

[3] = inhibition of 1 nM 3H-Naloxone specific binding, rat brain membranes, screening concentration 10^-5 M

## methionine enkephalin
rat
  analgesic activity: weak, fleeting analgesic activity

## COc1cc(C)c(C[C@H](N)C(=O)N[C@H](C)C(=O)NCCCc2ccccc2)c(C)c1 [Example 4, 0,2,6-trimethyltyrosyl-N-(3-phenylpropyl)-D-alaninamide]
[1]
  Writhing Mouse Oral: Active
  Writhing Mouse Subc.: Active
[2]; [3]
  IC50: 75 nM

## COc1ccc(C[C@H](N)C(=O)N[C@H](C)C(=O)NCCCc2ccccc2)cc1.Cl [Example 9, 0-methyl-L-tyrosyl-N-(3-phenylpropyl)-D-alaninamide, monohydrochloride]
[1]
  Writhing Mouse Oral: Active
  Writhing Mouse Subc.: Active
[2]
  Opiate Binding IC50: Inactive

## 2,6,dichlorotyrosyl-N-(3-phenylpropyl)-D-alaninamide, monohydrochloride [Example 23]
[1]
  Writhing Mouse Oral: Active
  Writhing Mouse Subc.: Active
[2]; [3]
  IC50: 7.6 nM

## COc1cc(C)c(C[C@H](N)C(=O)N[C@H](C)C(=O)NCCCc2ccccc2)c(C)c1 [Example 3, 0,2,6-trimethyltyrosyl-N-(3-phenylpropyl)-D-alaninamide]
[1]
  Writhing Mouse Oral: Active
  Writhing Mouse Subc.: Active
[2]; [3]
  IC50: 420 nM

## Cc1cc(C)c(C[C@H](N)C(=O)N[C@H](C)C(=O)NCCCc2ccccc2)c(C)c1.Cl [Example 25, 2,4,6-trimethylphenylalanyl-N-(3-phenylpropyl)-D-alaninamide, monohydrochloride]
[1]
  Writhing Mouse Oral: Inactive
  Writhing Mouse Subc.: Active
[2]; [3]
  IC50: 2000 nM

## CN[C@@H](Cc1c(C)cc(O)cc1C)C(=O)N[C@H](C)C(=O)NCCCc1ccccc1.Cl [Example 13, N,2,6-trimethyltyrosyl-N-(3-phenylpropyl)-D-alaninamide, monohydrochloride]
[1]
  Writhing Mouse Oral: Inactive
  Writhing Mouse Subc.: Active
[2]; inhibition of 1 nM 3H-Naloxone specific binding, rat brain membranes, screening concentration 10^-5 M, monohydrochloride
  IC50: 1800 nM

## CNC(Cc1c(C)cc(OCc2ccccc2)cc1C)C(=O)N[C@H](C)C(=O)NCCCc1ccccc1.Cl (mixture of isomers) [Example 12, N,2,6-trimethyl-0-(phenylmethyl)-DL-tyrosyl-N-(3-phenylpropyl)-D-alaninamide, monohydrochloride]
[1]
  Writhing Mouse Oral: Active
  Writhing Mouse Subc.: Active
[2]; [3]
  IC50: 3600 nM

## 0-ethyl-2,6-dimethyl-DL-tyrosyl-N-(3-phenylpropyl)-D-alaninamide, acetate (salt), hydrochloride (4:3:5; [Example 5]
[1]
  Writhing Mouse Oral: Inactive
  Writhing Mouse Subc.: Active
[2]; read-out: Opiate Binding IC50
  IC50: 130 nM

## CN[C@@H](Cc1c(C)cc(O)cc1C)C(=O)N[C@H](C)C(=O)NCCCc1ccccc1.CN[C@@H](Cc1c(C)cc(O)cc1C)C(=O)N[C@H](C)C(=O)NCCCc1ccccc1.CN[C@@H](Cc1c(C)cc(O)cc1C)C(=O)N[C@H](C)C(=O)NCCCc1ccccc1.CN[C@@H](Cc1c(C)cc(O)cc1C)C(=O)N[C@H](C)C(=O)NCCCc1ccccc1.Cl.Cl.Cl.Cl.Cl [Example 14, N,2,6-trimethyltyrosyl-N-(3-phenylpropyl)-D-alaninamide, hydrochloride (4:5)]
[1]
  Writhing Mouse Oral: Inactive
  Writhing Mouse Subc.: Active
[2]; [3]
  IC50: 140 nM

## Cc1cc(OCc2ccccc2)cc(C)c1C[C@H](N)C(=O)N[C@H](C)C(=O)NCCCc1ccccc1.Cl [Example 27, 2,6-dimethyl-O-(phenylmethyl)-L-tyrosyl-N-(3-phenylpropyl)-D-alaninamide, monohydrochloride]
[1]
  Writhing Mouse Oral: Active
  Writhing Mouse Subc.: Active
[2]; [3]
  IC50: 360 nM

## COc1cc(C)c(CC(N)C(=O)N[C@H](C)C(=O)NCCCc2ccccc2)c(C)c1.Cl (mixture of isomers) [Example 2, 0,2,6-trimethyl-DL-tyrosyl-N-(3-phenylpropyl)-D-alaninamide, monohydrochloride]
[1]
  Writhing Mouse Oral: Active
  Writhing Mouse Subc.: Active
[2]; [3]
  IC50: 290 nM

## Cc1cc(OCc2ccccc2)cc(C)c1C[C@@H](N)C(=O)N[C@H](C)C(=O)NCCCc1ccccc1.Cl [Example 28, 2,6-dimethyl-O-(phenylmethyl)-D-tyrosyl-N-(3-phenylpropyl)-D-alaninamide, hydrochloride]
[1]
  Writhing Mouse Oral: Active
  Writhing Mouse Subc.: Active
[2]; [3]
  IC50: 22 nM

## CN[C@@H](Cc1c(C)cc(OC)cc1C)C(=O)N[C@H](C)C(=O)NCCCc1ccccc1.Cl [Example 11, N,0,2,6,-tetramethyltyrosyl-N-(3-phenylpropyl)-D-alaninamide, monohydrochloride]
[1]
  Writhing Mouse Oral: Active
  Writhing Mouse Subc.: Active
[2]; [3]
  IC50: 610 nM

## Cc1cc(O)cc(C)c1CC(N)C(=O)N[C@H](C)C(=O)N(C)CCCc1ccccc1.Cl (mixture of isomers) [Example 16, 2,6-dimethyl-DL-tyrosyl-N-methyl-N-(3-phenylpropyl)-D-alaninamide, monohydrochloride]
[1]
  Writhing Mouse Oral: Inactive
  Writhing Mouse Subc.: Active
[2]; [3]
  IC50: 300 nM

## Cc1cc(OC(C)C)cc(C)c1C[C@H](N)C(=O)N[C@H](C)C(=O)NCCCc1ccccc1.Cc1cc(OC(C)C)cc(C)c1C[C@H](N)C(=O)N[C@H](C)C(=O)NCCCc1ccccc1.Cc1cc(OC(C)C)cc(C)c1C[C@H](N)C(=O)N[C@H](C)C(=O)NCCCc1ccccc1.Cc1cc(OC(C)C)cc(C)c1C[C@H](N)C(=O)N[C@H](C)C(=O)NCCCc1ccccc1.Cl.Cl.Cl.Cl.Cl [Example 6, 2,6,dimethyl-0-(1-methylethyl)tyrosyl-N-(3-phenylpropyl)-D-alaninamide, hydrochloride (4:5)]
[1]
  Writhing Mouse Oral: Inactive
  Writhing Mouse Subc.: Inactive
[2]; read-out: Opiate Binding IC50
  IC50: 47 nM

## Cc1cc(O)cc(C)c1CC(N)C(=O)N(C)[C@H](C)C(=O)NCCCc1ccccc1.Cl (mixture of isomers) [Example 15, 2,6-dimethyl-DL-tyrosyl-Nα-methyl-N-(3-phenylpropyl)-D-alaninamide, monohydrochloride]
[1]
  Writhing Mouse Oral: Active
  Writhing Mouse Subc.: Active
[2]; [3]
  IC50: 0.6 nM
